From patent US11491127B2, “Therapeutic use of compounds” (UCL BUSINESS LTD, priority 2010, dated 2022)
Like-named read-outs stand apart in the source and are kept apart here.

Columns and labels:
[1] = test system: lipid droplets in Dictyostelium cells; assay: Bodipy fatty acid lipid droplet accumulation; type: cell-based, Dictyostelium discoideum; conditions: 0.5 mM VPA; bodipy-labelled lipid
[2] = test system: Dictyostelium development; assay: Dictyostelium development; type: cell-based, Dictyostelium discoideum; conditions: concentrations found in plasma of patients (0.28-0.7 mM)
Protocol: Screening of a REMI library was carried out as previously described (Kuspa & Loomis, 2006) using A×2 background, with VPA resistant mutants selected for the ability to develop in the presence of 1 mM VPA on R. planticola. Identification of the ablated gene, enabled the identified PLAa (DDB_G0278525; SEQ ID NO: 16) to be recapitulated using by homologous recombination of a knockout cassette. Primers used for amplifying region within the open reading frame of the gene were (5′ […] (SEQ ID NO: 17) and 3′ […] (SEQ ID NO: 18), cloned by pCR2.1 TOPO (Invitrogen Ltd)), cloned into pUC19 using EcoRI digestion, and Sinai digested fragment from pBLPblp (Falx et al, 2004) was inserted into the EcoRV site of the insert. Genetic ablation was confirmed by PCR analysis. […] Development images were observed using a Leica CLS 150× microscope and images recorded using QICAM FAST 1394 camera. Fatty acid activation was determined by the method established by Wilson et al. (Wilson et al, 1982) with slight modifications. […] The organic phase was discarded and the aqueous phase was washed six times with 300 μl of n-heptane to remove non-activated fatty acids before the radioactivity of the acyl-CoA thioester remaining in the aqueous phase was determined in 2 ml of Lumasafe™ Plus fluid (Lumac LSC, Groningen, The Netherlands) in a scintillation counter.

[3] = test system: release of 3H arachidonic acid / palmitic acid radiolabel from Dictyostelium cells; assay: Fatty acid release (3H radiolabel release from labelled cells); type: cell-based, Dictyostelium discoideum
[4] = test system: fatty acid CoA activation in Dictyostelium cell extracts; assay: Fatty acid activation (palmitic acid to PaA-CoA) in cell extracts; type: biochemical, Dictyostelium discoideum; conditions: VPA 1.0 mM with cell extracts or 10 min, 1 mM pre-treatment of cells
Protocol: Screening of a REMI library was carried out as previously described (Kuspa & Loomis, 2006) using A×2 background, with VPA resistant mutants selected for the ability to develop in the presence of 1 mM VPA on R. planticola. Identification of the ablated gene, enabled the identified PLAa (DDB_G0278525; SEQ ID NO: 16) to be recapitulated using by homologous recombination of a knockout cassette. Primers used for amplifying region within the open reading frame of the gene were (5′ […] (SEQ ID NO: 17) and 3′ […] (SEQ ID NO: 18), cloned by pCR2.1 TOPO (Invitrogen Ltd)), cloned into pUC19 using EcoRI digestion, and Sinai digested fragment from pBLPblp (Falx et al, 2004) was inserted into the EcoRV site of the insert. Genetic ablation was confirmed by PCR analysis. Developmental resistance to VPA was assessed by plating cells (1×10^6) on 47 mm nitrocellulose filters (Millipore) soaked in phosphate buffer containing either 1 mM VPA or control, and development was recorded after 30 h unless otherwise stated. Development images were observed using a Leica CLS 150× microscope and images recorded using QICAM FAST 1394 camera. Fatty acid activation was determined by the method established by Wilson et al. (Wilson et al, 1982) with slight modifications. […]

Question: With `CCCC(CCC)C(=O)O` [VPA, 2-propylpentanoic acid, reference compound] as the molecule, how does the “intensity and diameter of fluorescent lipid droplets compared to untreated cells” value [1] read?
Answer: Its value is “increase”.

Question: And the “effect on development of Dictyostelium” value [2]?
Answer: Its value is “inhibits the development”.

Question: What about the activity at 500 µM ([3]; Dictyostelium, 0.5 h, Table 3, 3H-AA labelled cells, 30 min, 0.5 mM treatment, read-out: AA release [% of control]) of the same molecule?
Answer: The activity at 500 µM was 50%.

Question: And the IC50 ([3]; Dictyostelium, 3H arachidonic acid labelled cells, read-out: IC50 of decrease in radiolabel release)?
Answer: The IC50 was 89 µM.

Question: What about the IC50 ([3]; Dictyostelium, 3H palmitic acid labelled cells, read-out: IC50 of inhibition of tritiated palmitic acid release) of the same molecule?
Answer: The IC50 was 163 µM.

Question: And the “radiolabel release activity relative to control” value ([3]; Table 3, 30 min, 0.5 mM)?
Answer: The value was 50 % of control.

Question: What about the “effect on fatty acid activation (PaA-CoA)” value [4] of the same molecule?
Answer: Its value is “no effect”.
